Assay results reported in patent US9737260B2, “Methods for determining total body skeletal muscle mass” (GLAXOSMITHKLINE LLC, priority 2011, dated 2017).

What was measured:
[1] = rat, oral dose of 0.475 mg D3-creatine per rat
[2] = Dexamethasone-induced skeletal muscle atrophy in rats: lean body mass by QMR and creatine pool size by D3-creatine dilution; conditions: 22 week-old rats, once daily subcutaneous for 2 weeks; P<0.001 vs vehicle (459±45 g)

SMILES	absorption of oral dose [1]	D3-creatine tracer dose available to equilibrate with the body creatine pool ([1]; minimal urinary spillage) [%]	lean body mass (LBM) [2] [g]
[2H]C([2H])([2H])N(CC(=O)O)C(=N)N [D3-creatine]	rapidly and completely absorbed	> 99	
C[C@@H]1C[C@H]2[C@@H]3CCC4=CC(=O)C=C[C@]4(C)[C@@]3(F)[C@@H](O)C[C@]2(C)[C@@]1(O)C(=O)CO [dexamethasone]			353 ± 32
